We go through 18 molecules from patent US5962640A, “Methods for preparing novel dipeptide compounds or pharmacuetically acceptable salts thereof” (Japan Energy Corporation, priority 1995, dated 1999).

≈ marks a conversion by molar mass, not a printed value. Some results are limits rather than exact numbers.

One series deals with T1, Recombinant HIV protease (Human immunodeficiency virus type 1 group M subtype B, UniProt P04585).
T1 construct: Recombinant HIV protease
The series is described as follows: HIV protease inhibitory activity (cleavage of synthetic hepta-peptide, HPLC). In kind it is biochemical. To be noted: for inhibition at 5 µM: read-out: HIV protease inhibitory activity (%); for inhibition at 0.05 µM: concentration 50 nM (final), 37° C., 60 min. The procedure:
Recombinant HIV protease (Biochemistry, 250 (9), 264 (1990)) and synthetic hepta-peptide (H-Ser-Gln-Asn-Tyr-Pro-Ile-Val-OH/trifluoroacetic acid salt) were used for assay of protease activity. Peptide fragment H-Pro-Ile-Val-OH formed by cleavage between -Tyr . . . Pro of said substrate after a reaction in the presence of various concentration of tested compound at 37° C. for 60 min. was determined by reversed phase HPLC and the inhibitory rate was calculated (referred to Japanese laid-open unexamined patent, No. 170722/1993).
The concentration of tested compound represents the final concentration thereof of the reaction mixture.

Another series deals with MT-4 cell line. The series is described as follows: Cytotoxicity to non-infected MT-4 cell line, MTT method. In kind it is cell-based. To be noted: non-infected MT-4 cells, 5 day culture. The method, then: According to a test method which was already reported in publications (H.Nakashima et al., Antimicrob. Agents Chemother.36, 1249-1255 (1992), etc.,), anti-HIV activity was evaluated, by using MT-4 cell line and HTLV-IIIB virus, MT-4 cells (2.5×10^4 well, MOI:001) infected with said HTLV-IIIB virus just before the addition were into 96-well microtiter plate wherein each well contained various concentration of tested compound. At the same time, in order to investigate cytotoxicity of tested compounds to MT-4 cell line, non-infected MT-4 cell line was cultured in the presence of various kinds of tested compound. After 5 day culture at 37° C. in a CO2 incubator, the number of vial cells was counted by MTT method. […]

Another series relates to HTLV-IIIB virus. Put plainly: Anti-HIV activity: protection of HTLV-IIIB infected MT-4 cells, MTT method. The format is cell-based. To be noted: Human immunodeficiency virus 1, MT4, 120 h; MT-4 cells infected with HTLV-IIIB, 5 day culture. The method, then: The anti-HIV activity of the dipeptide compound of the present invention was evaluated as described below. That is, the inhibitory action of the compound on formation of HIV virus particles which infects T lymphocyte was evaluated by potency to prevent death of T lymphocyte accompanied by said virus infection.
According to a test method which was already reported in publications (H.Nakashima et al., Antimicrob. Agents Chemother.36, 1249-1255 (1992), etc.,), anti-HIV activity was evaluated, by using MT-4 cell line and HTLV-IIIB virus, MT-4 cells (2.5×10^4 well, MOI:001) infected with said HTLV-IIIB virus just before the addition were into 96-well microtiter plate wherein each well contained various concentration of tested compound. At the same time, in order to investigate cytotoxicity of tested compounds to MT-4 cell line, non-infected MT-4 cell line was cultured in the presence of various kinds of tested compound. After 5 day culture at 37° C. in a CO2 incubator, the number of vial cells was counted by MTT method.
Virus whose infectious value was 3.8×10^4 TCID 50/ml was used.
A general note: Formazan colour is commonly taken as a measure of viable cells.

A short description of series [1]: Pharmacokinetics in rats, intravenous or intraduodenal administration, plasma concentration. The settings on record: 10.0 mg/kg. In kind it is in vivo. The procedure:
Metabolic characteristics of the dipeptide compounds of the present invention was evaluated using rats. Tested compounds dissolved in vehicle was administered intraduodenally or intravenously. After administration, blood was taken and the concentration of residual tested compound in plasma was analyzed. The dosage of the tested compound was described in table 3.

Consider `CC(C)(C)NC(=O)[C@@H]1CSCN1C(=O)[C@@H](O)[C@H](Cc1ccccc1)NC(=O)c1ccccc1` [Compound of example 1, (R)-N-tert-butyl-3-[(2S,3S)-2-hydroxy-3-[benzoyl]amino-4-phenylbutanoyl]-1,3-thiazolidine-4-carboxamide], for which the inhibition at 5 µM at Recombinant HIV protease worked out at 52%.

For the molecule `Cc1c(N)cc(N)cc1C(=O)N[C@@H](Cc1ccccc1)[C@H](O)C(=O)N1CSC[C@H]1C(=O)NC(C)(C)C` [Compound of example 33, (R)-N-tert-butyl-3-[(2S,3S)-2-hydroxy-3-(3,5-diamino-2-methylbenzoyl)amino-4-phenylbutanoyl]-1,3-thiazolidine-4-carboxamide], at Recombinant HIV protease, the inhibition at 5 µM is 85.2%.

As for `Cc1c(O)cccc1C(=O)N[C@@H](Cc1ccccc1)[C@H](O)C(=O)N1CSC[C@H]1C(=O)NCc1ccccc1Cl` [Compound of example 42, (R)-N-(2-chlorobenzyl)-3-[(2S,3S)-3-(3-hydroxy-2-methylbenzoyl)amino-2-hydroxy-4-phenylbutanoyl]-1,3-thiazolidine-4-carboxamide], at Recombinant HIV protease, the inhibition at 0.05 µM is 51.2% and the inhibition at 5 µM amounted to 97.4%.

Consider `CCc1c(O)cccc1C(=O)N[C@@H](Cc1ccccc1)[C@H](O)C(=O)N1CSC(C)(C)[C@H]1C(=O)NCc1ccccc1C` [Compound of example 38, (R)-N-(2-methylbenzyl)-3-[(2S,3S)-3-(2-ethyl-3-hydroxybenzoyl)amino-2-hydroxy-4-phenylbutanoyl]-5,5-dimethyl-1,3-thiazolidine-4-carboxamide], for which, at Recombinant HIV protease, the inhibition at 0.05 µM was found to be 97.3% and the inhibition at 5 µM is more than 99%. Moreover, the “Cytotoxicity CC50” value in the series on MT-4 cell line was 19.5 µg/mL. Further, the EC50 with HTLV-IIIB virus was found to be 0.18 µg/mL (≈ 0.305 µM).

For the molecule `CCCc1c(O)cccc1C(=O)N[C@@H](Cc1ccccc1)[C@H](O)C(=O)N1CSC[C@H]1C(=O)NC(C)(C)C` [Compound of example 32, (R)-N-tert-butyl-3-[(2S,3S)-2-hydroxy-3-(3-hydroxy-2-propylbenzoyl)amino-4-phenylbutanoyl]-1,3-thiazolidine-4-carboxamide], on Recombinant HIV protease, the inhibition at 0.05 µM was found to be 17.2% and the inhibition at 5 µM is 92%.

`Cc1cccc(C)c1CNC(=O)[C@@H]1CSCN1C(=O)[C@@H](O)[C@H](Cc1ccccc1)NC(=O)c1cccc(O)c1C` [Compound of example 44, (R)-N-(2,6-dimethylbenzyl)-3-[(2S,3S)-3-(3-hydroxy-2-methylbenzoyl)amino-2-hydroxy-4-phenylbutanoyl]-1,3-thiazolidine-4-carboxamide]: on Recombinant HIV protease, the inhibition at 0.05 µM was 75.2% and the inhibition at 5 µM was 97.9%.

For `CC(C)(C)NC(=O)[C@@H]1CSCN1C(=O)[C@@H](O)[C@H](Cc1ccccc1)NC(=O)c1ccc(O)cc1` [Compound of example 7, (R)-N-tert-butyl-3-[(2S,3S)-2-hydroxy-3-[4-hydroxybenzoyl]amino-4-phenylbutanoyl]-1,3-thiazolidine-4-carboxamide], the inhibition at 5 µM on Recombinant HIV protease came to 62.2%.

For the molecule `Cc1c(N)cccc1C(=O)N[C@@H](Cc1ccccc1)[C@H](O)C(=O)N1CSC[C@H]1C(=O)NC(C)(C)C` [Compound of example 25, (R)-N-tert-butyl-3-[(2S,3S)-2-hydroxy-3-[3-amino-2-methylbenzoyl]amino-4-phenylbutanoyl]-1,3-thiazolidine-4-carboxamide], the inhibition at 5 µM at Recombinant HIV protease was 81.3%.

`Cc1c(O)cccc1C(=O)N[C@@H](Cc1ccccc1)[C@H](O)C(=O)N1CO[C@H](C)[C@H]1C(=O)NC(C)(C)C` [Compound of example 30, (4S,5R)-N-tert-butyl-3-[(2S,3S)-2-hydroxy-3-(2-methyl-3-hydroxybenzoyl)amino-4-phenylbutanoyl]-5-methyl-1,3-oxazolidine-4-carboxamide]: on Recombinant HIV protease, the inhibition at 0.05 µM is 21.5% and the inhibition at 5 µM turned out to be 96.9%. Also, the “Cytotoxicity CC50” value in the series with MT-4 cell line is 191 µg/mL. In addition, the concentration for a half-maximal effect (EC50) in the series with HTLV-IIIB virus is 1.4 µg/mL (≈ 2.81 µM).

As for `Cc1ccccc1CNC(=O)[C@H]1NC[C@@H](Cl)C1C(=O)[C@@H](O)[C@H](Cc1ccccc1)NC(=O)c1cccc(O)c1C` (stereo partly drawn) [Compound of example 41, (2S,4S)-N-(2-methylbenzyl)-3-[(2S,3S)-3-(3-hydroxy-2-methylbenzoyl)amino-2-hydroxy-4-phenylbutanoyl]-4-chloropyrrolidine-2-carboxamide], on Recombinant HIV protease, the inhibition at 0.05 µM was determined as 76.8% and the inhibition at 5 µM was 97.7%.

`Cc1ccccc1CNC(=O)[C@H]1N(C(=O)[C@@H](O)[C@H](Cc2ccccc2)NC(=O)c2cccc(O)c2C)CSC1(C)C` [Compound of example 37, (R)-N-(2-methylbenzyl)-3-[(2S,3S)-3-(3-hydroxy-2-methylbenzoyl)amino-2-hydroxy-4-phenylbutanoyl]-5,5-dimethyl-1,3-thiazolidine-4-carboxamide]: the inhibition at 0.05 µM on Recombinant HIV protease amounted to 95.8%. The inhibition at 5 µM at Recombinant HIV protease is more than 99%. Moreover, the values for the AUC in series [1] (i.d.) and in series [1] (i.v.) were 55 µg/mL/min and 131 µg/mL/min, respectively.

For the molecule `CC(C)(C)NC(=O)[C@@H]1CSCN1C(=O)[C@@H](O)[C@H](Cc1ccccc1)NC(=O)c1cccc(O)c1` [Compound of example 6, (R)-N-tert-butyl-3-[(2S,3S)-2-hydroxy-3-[3-hydroxybenzoyl]amino-4-phenylbutanoyl]-1,3-thiazolidine-4-carboxamide], at Recombinant HIV protease, the inhibition at 5 µM was found to be 76%.

Take `Cc1c(O)cccc1C(=O)N[C@@H](Cc1ccccc1)[C@H](O)C(=O)N1CSC(C)(C)[C@H]1C(=O)NCc1ccccc1Cl` [Compound of example 45, (R)-N-(2-chlorobenzyl)-3-[(2S,3S)-3-(3-hydroxy-2-methylbenzoyl)amino-2-hydroxy-4-phenylbutanoyl]-5,5-dimethylthiazolidine-4-carboxamide]: at Recombinant HIV protease, the inhibition at 0.05 µM was 94.5% and the inhibition at 5 µM was more than 99%.

As for `Cc1ccccc1C(=O)N[C@@H](Cc1ccccc1)[C@H](O)C(=O)N1CSC[C@H]1C(=O)NC(C)(C)C` [Compound of example 2, (R)-N-tert-butyl-3-[(2S,3S)-2-hydroxy-3-[2-methylbenzoyl]amino-4-phenylbutanoyl]-1,3-thiazolidine-4-carboxamide], the inhibition at 5 µM on Recombinant HIV protease was found to be 74.9%.

With `CC(C)(C)NC(=O)[C@@H]1CSCN1C(=O)[C@@H](O)[C@H](Cc1ccccc1)NC(=O)c1ccc(C(=O)O)cc1` [Compound of example 13, (R)-N-tert-butyl-3-[(2S,3S)-2-hydroxy-3-[4-carboxybenzoyl]amino-4-phenylbutanoyl]-1,3-thiazolidine-4-carboxamide], the inhibition at 5 µM on Recombinant HIV protease was determined as 70.4%.

On to `Cc1cccc(C(=O)N[C@@H](Cc2ccccc2)[C@H](O)C(=O)N2CSC[C@H]2C(=O)NC(C)(C)C)c1C` [Compound of example 26, (R)-N-tert-butyl-3-[(2S,3S)-2-hydroxy-3-(2,3-dimethylbenzoyl]amino-4-phenylbutanoyl]-1,3-thiazolidine-4-carboxamide], for which, on Recombinant HIV protease, the inhibition at 5 µM came to 77.9%.

Consider `CC(C)(C)NC(=O)[C@@H]1CSCN1C(=O)[C@@H](O)[C@H](Cc1ccccc1)NC(=O)c1cc(O)cc(O)c1` [Compound of example 29, (R)-N-tert-butyl-3-[(2S,3S)-2-hydroxy-3-(3,5-dihydroxybenzoyl)amino-4-phenylbutanoyl]-1,3-thiazolidine-4-carboxamide], for which, on Recombinant HIV protease, the inhibition at 5 µM was 75.6%.

As to `CCCCNC(=O)[C@@H]1CSCN1C(=O)[C@@H](O)[C@H](Cc1ccccc1)NC(=O)c1cccc(O)c1C` [Compound of example 39, (R)-N-n-butyl-3-[(2S,3S)-3-(3-hydroxy-2-methylbenzoyl)amino-2-hydroxy-4-phenylbutanoyl]-1,3-thiazolidine-4-carboxamide], on Recombinant HIV protease, the inhibition at 0.05 µM was determined as 13.4% and the inhibition at 5 µM stood at 92%.

By EC50 is commonly meant the concentration that produces a half-maximal response.
